Measurements reported in the supplement of paper PMC10307832.

Columns and labels:
Assay in all cases: relative viability (nuclei count vs DMSO), 5 days (fraction); higher = more cells survive
Bromopyruvate + Olaparib = compound: C(C(=O)C(=O)O)Br [Bromopyruvate] + O=C(c1cc(Cc2n[nH]c(=O)c3ccccc23)ccc1F)N1CCN(C(=O)C2CC2)CC1 [Olaparib] (partner 8 µM)
Outline: (§1)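 Relative viability was taken as the ratio of nuclei in treated wells to nuclei in vehicle wells. Lung cancer cell lines in 1536-well plates received compounds by pin tool one day after seeding, either one drug alone or a fixed anchor-drug dose plus five library-drug doses (not always all listed) in √10 steps. Nuclei were counted on 4× images after 5 days of treatment, and values are medians of duplicate plates.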

[1] = compound: CC(O)(CS(=O)(=O)c1ccc(F)cc1)C(=O)Nc1ccc(C#N)c(C(F)(F)F)c1 [Bicalutamide] + CC(C)C[C@H](NC(=O)[C@H](Cc1ccccc1)NC(=O)c1cnccn1)B(O)O [Bortezomib] (partner 0.002 µM)
Outline: as §1

[2] = compound: CC(O)(CS(=O)(=O)c1ccc(F)cc1)C(=O)Nc1ccc(C#N)c(C(F)(F)F)c1 [Bicalutamide] + C[C@]1(O)C[C@@H](c2nc(-c3ccc4ccc(-c5ccccc5)nc4c3)c3c(N)nccn32)C1 [Linsitinib] (partner 1 µM)
Outline: as §1

[3] = compound: C(C(=O)C(=O)O)Br [Bromopyruvate] + Cc1nc(NC(=O)N2CCC[C@H]2C(N)=O)sc1-c1ccnc(C(C)(C)C(F)(F)F)c1 [Alpelisib] (partner 2 µM)
Outline: as §1

Cell Line	relative viability (Bromopyruvate + Olaparib; first compound 1 µM)	relative viability (Bromopyruvate + Olaparib; first compound 100 µM)	relative viability ([1]; first compound 0.08 µM)	relative viability ([1]; first compound 0.253 µM)	relative viability ([1]; first compound 0.8 µM)	relative viability ([1]; first compound 2.53 µM)	relative viability ([2]; first compound 0.08 µM)	relative viability ([2]; first compound 0.253 µM)	relative viability ([2]; first compound 0.8 µM)	relative viability ([2]; first compound 2.53 µM)	relative viability ([3]; first compound 1 µM)	relative viability ([3]; first compound 3.162 µM)	relative viability ([3]; first compound 31.62 µM)	relative viability ([3]; first compound 100 µM)	relative viability (Bromopyruvate + Olaparib; first compound 3.162 µM)	relative viability (Bromopyruvate + Olaparib; first compound 10 µM)	relative viability (Bromopyruvate + Olaparib; first compound 31.62 µM)	relative viability ([3]; first compound 10 µM)
ABC-1	0.775	0.566	0.311	0.232	0.328	0.319	0.912	0.889	0.768	0.861	0.915	1.04	1.04	0.878				
SW 900	0.892	0.821													0.874	0.936	0.8	
PC-14	0.297	0.205	0.923	0.974	0.827	0.89	0.968	0.967	0.976	1.04	1.02	1.01	0.966	0.964	0.368	0.161	0.32	0.93
NCI-H1648	0.731	0.982													0.92	0.978	1.11	
A549		0.3					0.567	0.531	0.696	0.527	0.814	0.971	0.794	0.726	0.286	0.403	0.356	0.834
A-427	0.664	0.774	1.04	1.12	1	0.93	1.16	1.15	1.21	1.18	1.12	1.07	1.05	1.02	0.758	0.782	0.693	1.09
NCI-H1792	0.0016	0.68	0.983	0.957	0.983	1.07	0.585	0.412	0.549	0.48	0.715	0.788	0.708	0.703	0.469	0.532	0.582	0.906
LCLC-97TM1	0.467	0.212	0.726	0.543	0.635	0.461	0.185	0.188	0.199	0.185			0.302	0.183	0.458	0.481	0.352	0.272
NCI-H1703	0.648	0.502	0.374	0.427	0.317	0.204	0.815	0.79	0.833	0.495	0.364	0.347	0.345	0.33	0.418	0.335	0.633	0.294
LCLC-103H	0.744	0.809	1.1	1.08	1.15	1	1.04	1.04	1.14	1.05	0.981	0.938	0.95	0.985	0.773	0.752	0.848	1.01
RERF-LC-KJ	0.981	0.852	1.24	0.951	1.23	1.07	0.868	0.85	0.94	0.904	0.688	1.09	0.773	0.82	0.857	0.954	0.942	0.825
BEN	0.96	0.99	0.847	0.667	1.18	0.917	1.04	0.802	1.26	0.966	0.985	1.05	0.957	1.07	0.994	1.46	1.03	1.15
NCI-H1666	0.685	0.716	0.808	0.802	1	0.949	0.814	0.8	0.932	0.955	1.21	1.07	1.02	0.774	0.733	0.73	0.707	1.11
LC-2-ad	0.816	0.664	1.07	1.05	0.997	1.01	0.818	0.796	0.847	0.891	0.925	0.919	0.938	0.893	0.665	0.352	0.666	0.839
SW 1573	0.555	0.0623	1.05	0.842	1.25	0.912	0.834	0.647	0.887	0.647	0.761	0.84	0.678	0.761	0.469	0.475	0.358	0.876
ChaGo-K-1	0.417	0.301	0.973	1.05	1.17	0.864									0.466	0.431	0.344	
NCI-H358	0.591	0.535					0.763	0.65	0.841	0.786	0.812	1.08	0.69	0.721	0.687	0.628	0.565	0.819
NCI-H1944	0.395	0.402					1.07	1.15	1.27	1.14	0.8	0.85	0.821	0.858	0.432	0.429	0.419	0.904
NCI-H2342	0.477	0.344													0.367	0.376	0.377	
NCI-H522	0.615	0.477													0.54	0.693	0.643	
SK-MES-1	0.802	0.554					1.14	1.07	1.07	1.04	0.842	0.878	0.868	1.01	0.738	0.85	0.626	0.915
NCI-H2170	0.626	0.56									0.833	0.831	0.914	0.864	0.556	0.625	0.576	0.764
NCI-H1793	0.841	0.89					0.731	0.568	0.894	0.686	0.659	0.715	0.697	0.702	0.95	0.925	0.921	0.751
